Measured values from US8138168B1 (Takeda Pharmaceutical Company Limited, priority 2007, dated 2012).
Read-outs that look alike come from different tables or passages of the source.

Target: T1, Recombinant human renin (Homo sapiens, UniProt P00797)
T1 construct: isolate the active form (residues 67-406); made in house; host or cells: FreeStyle 293-F cells (transient expression of pcDNA3.1(+)/hREN)
T1 sequence (P00797 67-406): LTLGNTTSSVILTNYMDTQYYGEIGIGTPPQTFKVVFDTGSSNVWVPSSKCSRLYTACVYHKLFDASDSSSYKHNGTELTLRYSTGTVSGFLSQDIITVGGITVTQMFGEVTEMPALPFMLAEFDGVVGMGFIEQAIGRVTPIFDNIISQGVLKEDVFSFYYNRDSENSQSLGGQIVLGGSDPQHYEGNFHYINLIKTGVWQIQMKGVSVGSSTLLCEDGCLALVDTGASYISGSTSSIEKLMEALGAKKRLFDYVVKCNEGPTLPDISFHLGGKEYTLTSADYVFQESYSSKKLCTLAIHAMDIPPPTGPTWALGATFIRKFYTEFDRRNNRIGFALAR
Assay: In vitro enzymatic activity assay of renin inhibitors (fluorogenic peptide substrate)
Format: biochemical
Method in brief: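 Recombinant human renin (3 nM final) pre-incubated 10 min at 37 °C with compounds in pH 7.4 Hepes/EDTA/DTT/0.1 mg/mL BSA/Brij35 buffer (optionally plus 2% BSA), 5% DMSO final; fluorogenic QXL520/HiLyteFluo488 peptide substrate added.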

[1] = read-out: IC50 of Exemplified Compounds Against Renin

With `COCCCn1c([C@@H]2CCCN(C(=O)[C@@H]3CN(C(=O)C(C)C)C[C@H]3N)C2)nc2ccccc21` [Compound 396, 1-((3S,4R)-3-amino-4-((R)-3-(1-(3-methoxypropyl)-1H-benzo[d]imidazol-2-yl)piperidine-1-carbonyl)pyrrolidin-1-yl)-2-methylpropan-1-one] the IC50 [1] was greater than 1000 nM.

Compound `CNC(=O)Nc1ccc(-c2ccc(C[C@@H](N)CC(=O)N3CCC[C@@H](c4nc5ccccc5n4CCCOC)C3)cc2)cc1` [Compound 175, 1-(4′-((R)-2-amino-4-((R)-3-(1-(3-methoxypropyl)-1H-benzo[d]imidazol-2-yl)piperidin-1-yl)-4-oxobutyl)biphenyl-4-yl)-3-methylurea] has an IC50 [1] of less than 100 nM.

Work on `COCCCn1c([C@@H]2CCCN(C(=O)[C@H](Cc3ccccc3)C(N)Cc3ccc(Cl)cc3)C2)nc2ccccc21` (stereo partly drawn) [Compound 240, (R)-3-amino-2-benzyl-4-(4-chlorophenyl)-1-((R)-3-(1-(3-methoxypropyl)-1H-benzo[d]imidazol-2-yl)piperidin-1-yl)butan-1-one] yielded an IC50 [1] greater than 1000 nM.

For `COCCCn1c([C@@H]2CCCN(C(=O)C[C@H](N)Cc3ccc(-c4ccccc4)cc3)C2)nc2c(C)ccnc21` [Compound 505, (R)-3-amino-4-(biphenyl-4-yl)-1-((R)-3-(3-(3-methoxypropyl)-7-methyl-3H-imidazo[4,5-b]pyridin-2-yl)piperidin-1-yl)butan-1-one], the IC50 [1] was less than 100 nM.

`COCCCn1c([C@@H]2CCCN(C(=O)[C@@H]3CN(S(=O)(=O)c4cc(C)ccc4OC)C[C@H]3N)C2)nc2ccccc21` [Compound 410, ((3R,4S)-4-amino-1-(2-methoxy-5-methylphenylsulfonyl)pyrrolidin-3-yl)((R)-3-(1-(3-methoxypropyl)-1H-benzo[d]imidazol-2-yl)piperidin-1-yl)methanone] showed an IC50 [1] greater than 1000 nM.

`COCCCn1c([C@@H]2CCCN(C(=O)[C@@H]3CN(S(=O)(=O)c4ccc5ccccc5c4)C[C@H]3N)C2)nc2ccccc21` [Compound 341, ((3R,4S)-4-amino-1-(naphthalen-2-ylsulfonyl)pyrrolidin-3-yl)((R)-3-(1-(3-methoxypropyl)-1H-benzo[d]imidazol-2-yl)piperidin-1-yl)methanone] gave an IC50 [1] of 100 to 1000 nM.

`CC(C)(C)[C@H](N)C(=O)N1CCCC(c2nc3ccccc3[nH]2)C1` (stereo partly drawn) [Compound 56, (2S)-1-(3-(1H-benzo[d]imidazol-2-yl)piperidin-1-yl)-2-amino-3,3-dimethylbutan-1-one] showed an IC50 [1] greater than 1000 nM.

Compound `COCCCn1c([C@@H]2CCCN(C(=O)C[C@H](N)Cc3ccc(N4CCN(c5ccccc5)CC4)cc3)C2)nc2ccccc21` [Compound 231, (R)-3-amino-1((R)-3-(1-(3-methoxypropyl)-1H-benzo[d]imidazol-2-yl)piperidin-1-yl)-4-(4-(4-phenylpiperazin-1-yl)phenyl)butan-1-one] has an IC50 [1] of 100 to 1000 nM.

Work on `COCCCn1c([C@@H]2CCCN(C(=O)C[C@H](N)CNC(=O)c3cccc(OC)c3)C2)nc2ccccc21` [Compound 310, N-((S)-2-amino-4-((R)-3-(1-(3-methoxypropyl)-1H-benzo[d]imidazol-2-yl)piperidin-1-yl)-4-oxobutyl)-3-methoxybenzamide] yielded an IC50 [1] of 100 to 1000 nM.

`COCCCn1c([C@@H]2CCCN(C(=O)C[C@H](N)Cc3ccc(-c4cccnc4Cl)cc3)C2)nc2ccccc21` [Compound 167, (R)-3-amino-4-(4-(2-chloropyridin-3-yl)phenyl)-1-((R)-3-(1-(3-methoxypropyl)-1H-benzo[d]imidazol-2-yl)piperidin-1-yl)butan-1-one] gave an IC50 [1] of less than 100 nM.

In the case of `COCCCn1c([C@@H]2CCCN(C(=O)[C@@H]3CN(S(=O)(=O)c4cccc(Cl)c4)C[C@H]3N)C2)nc2ccccc21` [Compound 351, ((3R,4S)-4-amino-1-(3-chlorophenylsulfonyl)pyrrolidin-3-yl)((R)-3-(1-(3-methoxypropyl)-1H-benzo[d]imidazol-2-yl)piperidin-1-yl)methanone], the IC50 [1] is reported as 100 to 1000 nM.

Compound `N[C@@H](CCl)C(=O)N1CCCC(c2nc3ccccc3[nH]2)C1` (stereo partly drawn) [Compound 60, (2R)-1-(3-(1H-benzo[d]imidazol-2-yl)piperidin-1-yl)-2-amino-3-chloropropan-1-one] has an IC50 [1] greater than 1000 nM.

For `COCCCn1c([C@@H]2CCCN(C(=O)C[C@H](N)COCc3ccccc3)C2)nc2ccccc21` [Compound 88, (S)-3-amino-4-(benzyloxy)-1-((R)-3-(1-(3-methoxypropyl)-1H-benzo[d]imidazol-2-yl)piperidin-1-yl)butan-1-one], the IC50 [1] was greater than 1000 nM.

For `COCCCn1c([C@@H]2CCCN(C(=O)C[C@H](N)CNC(=O)Nc3ccc(OC)cc3OC)C2)nc2ccccc21` [Compound 279, 1-((S)-2-amino-4-((R)-3-(1-(3-methoxypropyl)-1H-benzo[d]imidazol-2-yl)piperidin-1-yl)-4-oxobutyl)-3-(2,4-dimethoxyphenyl)urea], the IC50 [1] was 100 to 1000 nM.

`COCCCn1c([C@@H]2CCCN(C(=O)[C@@H]3CN(C(=O)c4ccc(Cl)cc4)C[C@H]3N)C2)nc2ccccc21` [Compound 416, ((3R,4S)-4-amino-1-(4-chlorobenzoyl)pyrrolidin-3-yl)((R)-3-(1-(3-methoxypropyl)-1H-benzo[d]imidazol-2-yl)piperidin-1-yl)methanone] showed an IC50 [1] greater than 1000 nM.

In the case of `CC(=O)NCCn1c([C@@H]2CCCN(C(=O)C[C@H](N)Cc3ccc(-c4cnc(N)nc4)cc3)C2)nc2c(Cl)cccc21` [Compound 470, N-(2-(2-((R)-1-((R)-3-amino-4-(4-(2-aminopyrimidin-5-yl)phenyl)butanoyl)piperidin-3-yl)-4-chloro-1H-benzo[d]imidazol-1-yl)ethyl)acetamide], the IC50 [1] is reported as 100 to 1000 nM.

In the case of `COCCCn1c([C@@H]2CCCN(C(=O)C[C@@H](N)COc3cccc(OC)c3)C2)nc2ccccc21` [Compound 433, (R)-3-amino-4-(3-methoxyphenoxy)-1-((R)-3-(1-(3-methoxypropyl)-1H-benzo[d]imidazol-2-yl)piperidin-1-yl)butan-l-one], the IC50 [1] is reported as greater than 1000 nM.

In the case of `COCCCn1c([C@@H]2CCCN(C(=O)C[C@H](N)Cc3ccc(-c4ccc5c(c4)OCCO5)cc3)C2)nc2c(F)cccc21` [Compound 455, (R)-3-amino-4-(4-(2,3-dihydrobenzo[b][1,4]dioxin-6-yl)phenyl)-1-((R)-3-(4-fluoro-1-(3-methoxypropyl)-1H-benzo[d]imidazol-2-yl)piperidin-1-yl)butan-1-one], the IC50 [1] is reported as less than 100 nM.

`COCCCn1c([C@@H]2CCCN(C(=O)C[C@H](N)Cc3ccc(-c4ccc(O)nc4)cc3)C2)nc2c(C)ccnc21` [Compound 504, (R)-3-amino-4-(4-(6-hydroxypyridin-3-yl)phenyl)-1-((R)-3-(3-(3-methoxypropyl)-7-methyl-3H-imidazo[4,5-b]pyridin-2-yl)piperidin-1-yl)butan-1-one] gave an IC50 [1] of 100 to 1000 nM.

`N[C@@H](CC(=O)N1CCCC(c2nc3ccccc3[nH]2)C1)Cc1ccc(Cl)cc1` (stereo partly drawn) [Compound 23, (3R)-1-(3-(1H-Benzo[d]imidazol-2-yl)piperidin-1-yl)-3-amino-4-(4-chlorophenyl)butan-1-one] showed an IC50 [1] greater than 1000 nM.

For `COCCCn1c([C@@H]2CCCN(C(=O)[C@@H]3CN(C(=O)Oc4cccc(C(F)(F)F)c4)C[C@H]3N)C2)nc2ccccc21` [Compound 408, (3S,4R)-3-(trifluoromethyl)phenyl 3-amino-4-((R)-3-(1-(3-methoxypropyl)-1H-benzo[d]imidazol-2-yl)piperidine-1-carbonyl)pyrrolidine-1-carboxylate], the IC50 was greater than 1000 nM.

Work on `N[C@@H](CC(=O)N1CCCC(c2nc3ccccc3[nH]2)C1)Cc1cccc2ccccc12` (stereo partly drawn) [Compound 38, (3R)-1-(3-(1H-benzo[d]imidazol-2-yl)piperidin-1-yl)-3-amino-4-(naphthalen-1-yl)butan-1-one] yielded an IC50 [1] greater than 1000 nM.

Work on `CCOc1ccc(-c2ccc(C[C@@H](N)CC(=O)N3CCC[C@@H](c4nc5ccccc5n4CCCOC)C3)cc2)cn1` [Compound 138, (R)-3-amino-4-(4-(6-ethoxypyridin-3-yl)phenyl)-1-((R)-3-(1-(3-methoxypropyl)-1H-benzo[d]imidazol-2-yl)piperidin-1-yl)butan-1-one] yielded an IC50 [1] of less than 100 nM.

`CC(=O)NCCn1c([C@@H]2CCCN(C(=O)C[C@H](N)Cc3ccc(-c4cnc(N)nc4)cc3)C2)nc2c(C)cccc21` [Compound 472, N-(2-(2-((R)-1-((R)-3-amino-4-(4-(2-aminopyrimidin-5-yl)phenyl)butanoyl)piperidin-3-yl)-4-methyl-1H-benzo[d]imidazol-1-yl)ethyl)acetamide] gave an IC50 [1] of 100 to 1000 nM.

For `COc1cc(OC)cc([C@@H](N)CC(=O)N2CCCC(c3nc4ccccc4[nH]3)C2)c1` (stereo partly drawn) [Compound 31, (3S)-1-(3-(1H-benzo[d]imidazol-2-yl)piperidin-1-yl)-3-amino-3-(3,5-dimethoxyphenyl)propan-1-one], the IC50 [1] was greater than 1000 nM.

Compound `COCCCn1c([C@@H]2CCCN(C(=O)C[C@H](N)Cc3ccc(-c4ccc5c(c4)NC(=O)CO5)cc3)C2)nc2ccccc21` [Compound 438, 6-(4-((R)-2-amino-4-((R)-3-(1-(3-methoxypropyl)-1H-benzo[d]imidazol-2-yl)piperidin-1-yl)-4-oxobutyl)phenyl)-2H-benzo[b][1,4]oxazin-3(4H)-one] has an IC50 [1] of less than 100 nM.

Compound `COCCCn1c([C@@H]2CCCN(C(=O)C[C@H](N)CNC(=O)c3ccc(-c4ccccc4)o3)C2)nc2ccccc21` [Compound 251, N-((S)-2-amino-4-((R)-3-(1-(3-methoxypropyl)-1H-benzo[d]imidazol-2-yl)piperidin-1-yl)-4-oxobutyl)-5-phenylfuran-2-carboxamide] has an IC50 [1] of less than 100 nM.
